Results: patent US10925854B2, “Methods and compositions for preventing or treating fatty liver, protecting liver function or ameliorating liver diseases caused by fatty liver or other associated disorders” (SINEW PHARMA INC., priority 2015, dated 2021)

Key:
[1] = system: B6 mice fed with high fat feed (fatty liver); test: Liver antioxidant capacity (Gpx, GSH, Grd, SOD) in mice with induced fatty liver; type: in vivo; conditions: for effect on liver antioxidant activity (in words): fatty liver mice
Experimental: (§1) B6 mice recommended in the specification “Method for evaluating the liver protection and health care efficacies of health food” announced by the Department of Health were chosen for animal testing. More than four (4) mice were used in each group of the pre-test, while more than twelve (12) mice were used in each group of the confirmatory test. Male mice bred at 23±2° C. in an animal room with 55±15% relative humidity under normal light/dark cycle (7:00 AM-7:00 PM lights on/7:00 PM-7:00 AM lights off) and weighing 18-23 g were purchased from BioLASCO (Taipei) and housed at Laboratory Animal Center in National Defense Medical Center. The animal test was carried out according to the guideline for animal experiment of National Health Research Institutes. Mice were fed with normal feed at 3-5 g/day and unlimited supply of water for 1-2 weeks and investigated for health condition. The weight of mice was recorded once a week.
(§2) The tested animals were grouped randomly into Blank, High Fat Diet control (HFD), Positive Control (PS), and Test group. The animals of Blank were fed with normal feed. The animals of HFD were fed with high fat feed. The animals of PS were fed with high fat feed, and additionally fed with silymarin (5 mg/kg/day) by a tube. The animals of Test group were fed with high fat feed, and additionally force-fed with test compounds by a tube.
(§3) The animals of Blank were fed casually with normal feed for 12 weeks, while the animals of HFD, PS, and Test group were fed casually with high fat feed for 12 weeks. After 8 weeks of feeding, the animals of Blank and HFD were fed with deionized water by a tube once a day; the animals of PS were fed with silymarin by a tube once a day; and the animals of Test Group were fed with test compounds by a tube once a day for a duration of 4 or 8 weeks.
About 0.1 g of liver tissue was taken from the sacrificed animal and homogenized by centrifuge with a biomasher for 10 minutes. A 9-fold weight (w/w) of buffer (pH 7.4, 50 mmol/L Tris-HCl, 180 mmol/L KCl) was added to the homogenized tissue, which was then mixed well by a Vortex mixer for subsequent use. The resulting homogenization solution samples of liver tissue was used for the analysis of various members of liver antioxidant systems, including glutathione peroxidase (GPx), glutathione (GSH), glutathione reductase (Grd), and superoxide dismutase (SOD). Methods of related analysis can be found in the known literatures, for example, the draft of “Method for evaluating the liver protection and health care efficacies of health food” announced by the Ministry of Health and Welfare, Taiwan.

[2] = system: B6 mice fed with high fat feed (fatty liver); test: Liver histopathology (H&E) and NAS score in mice with induced fatty liver; type: in vivo; conditions: for large vesicular fat droplets within liver cells in liver tissue section: H&E sections, treatment for 4 weeks (FIG. 1); for effect on liver damages (NAS, in words): fatty liver mice
Experimental: as §1, §2, §3
At the end of the test, all mice were sacrificed. One tissue block with a volume of approximately 1 cm^3 was cut from the largest right lobe of liver, fixed in 10% neutral formalin, and then dehydrated and hyalinized in various concentrations of ethanol (30, 50, 70, 95, 99.5%) and xylene. Afterwards, xylene was replaced with hot paraffin solution. At last, the tissue was embedded with paraffin solution. The finished paraffin specimen was cut into 5 pun-thickness paraffin sections by the microtome. The sections were pasted on clean slides, dried at 37° C., and then stained by H&E staining.
Liver tissue sections were deparaffinized in xylene for 30 minutes, and then successively rehydrated in 99.5%, 95%, 70%, 50%, and 30% ethanol for 30 minutes, respectively. After being soaked in distilled water for 10 minutes, the sections could be stained. The sections were first immersed in hematoxylin for 30 seconds to stain cell nuclei, then washed with distilled water for a few minutes, stained with eosin for 2-5 minutes, and washed with distilled water for a few minutes again. […]
In order to observe the changes of lesion, fat accumulation, necrosis, or fibrosis in liver cells when there was an ongoing liver damage, liver tissues were H&E stained to evaluate the degree of liver fat accumulation. […] As for the assessment of semi-quantitative analysis in pathology, it had to be confirmed by a physician or a veterinary pathologist who conducted a double-blind analysis to score (NAS score)^16 and compare all the sections without knowing the test design. […]

[3] = system: HepG2 fatty liver cells (induced with oleic acid); test: Reduction of TG content in oleic acid-induced HepG2 fatty liver cells; type: cell-based, human; conditions: Homo sapiens, 72 h; tested substances 1.0 uM, fatty liver cells from HepG2; read-out: TG reduction rate
Experimental: The activity of the various compounds of the present invention in reduction of fat content was analyzed by using human hepatoma cell line Hep G2.
HepG2 cell lines (15×10^6 cells) were cultured in DMEM culture No. B, incubated in an incubator with 5% CO2 at 37° C. for 24 hours, cultured in DMEM culture No. C (serum-free medium) for 24 hours, and finally cultured in DMEM culture No. D (containing oleate/albumin complex) for another 48 hours to induce HepG2 cell lines to form fatty liver cells.
HepG2 cell lines were divided into six groups, including: (1) Blank: no treatment; (2) DMSO group: cells from Blank were treated with dimethyl sulfoxide (DMSO); (3) Control: induction with oleic acid to form fatty liver cells; (4) Vehicle group: fatty liver cells formed by induction with oleic acid were treated with DMSO; (5) Positive control: fatty liver cells were treated with silymarin; and (6) Test Group: fatty liver cells were treated with various compounds of the present invention.
After incubation for 72 hours, the treated cells from each group were successively washed twice with PBS, and then incubated with 0.5 ml of trypsin/EDTA for 3 minutes. Afterwards, the cells were scraped with 2 ml of PBS and then transferred to the centrifuge tube to be shattered by ultrasonic. 20 μl of the cell extracts was taken to determine the content of protein. TG determination was performed using commercially available combination of agents (Randox). The TG content obtained above was divided by the protein content to obtain a ratio, representing a relative TG content in the cells.
The equation for calculating reduction rate (%) of TG was as follows: [1−(TG content of Test Group−TG content of Blank)/(TG content of Oleic acid induction Group−TG content of Blank)]×100%.

[4] = system: B6 mice fed with high fat feed (fatty liver); test: Serum ALT and AST (liver dysfunction) in mice with induced fatty liver; type: in vivo
Experimental: as §1, §2, §3
Before testing and in the eighth (8th), twelfth (12th), and sixteenth (16th) week after testing, blood was collected from the cheek or the heart. At the end of testing, all mice were weighted and then sacrificed, and blood was collected from the cheek or the heart simultaneously. The blood specimens of mice was placed at room temperature for one hour to clot, and then the serum was separated by centrifugation in a refrigeration centrifuge at 15,700×g at 4° C. for 5 minutes. Afterwards, biochemical indices of liver function, including aspartate transaminase (AST), alanine aminotransferase (ALT), triglyceride (TG), total cholesterol (TCHO/TC), low-density lipoprotein cholesterol (LDL-C), and high-density lipoprotein cholesterol (HDL-C), were detected by the automatic blood biochemistry analyzer.

[5] = system: B6 mice fed with high fat feed (fatty liver); test: Liver lipids (TG, TC in liver) in mice with induced fatty liver; type: in vivo
Experimental: as §1, §2, §3
In addition, abdominal fat and liver specimens were taken from the abdomens of sacrificed mice and weighted to compare the weight of fat and liver and obtain a ratio of liver weight to body weight. Two tissue blocks with a volume of approximately 1 cm^3 were cut from the largest right lobe of liver, fixed in 10% neutral formalin solution, and then embedded with paraffin for sectioning and H&E staining for histopathological observation. Moreover, the rest of the liver was frozen for preservation and detection of the contents of triglyceride and total cholesterol in the liver. Furthermore, the liver function of animals of each group were analyzed by Galactose Single Point Method, which was recognized and recommended for quantification of remaining liver function in clinical use by U.S. FDA and Ministry of Health and Welfare, Taiwan. At the end of the tests, 0.5 g of galactose (G.S.P.® 0.4 g/mL) per kg of animal was administered via intravenous. One hour after the administration, about 0.5 ml of whole blood was taken by using a filter paper to evaluate liver function of mice. The higher the value of GSP was, the worse the remaining liver function would be (FDA: “Guidance for Industry: Pharmacokinetics in Patients with Impaired. Hepatic Function—Study Design, Data Analysis and Impact on Dosing and. Labeling. 2003).

[6] = Abdominal fat weight, liver weight and increase of body weight in high fat feed mice; type: in vivo, B6 mice; conditions: fatty liver mice
Experimental: as §1, §2
The animals of Blank were fed casually with normal feed for 12 weeks, while the animals of HFD, PS, and Test group were fed casually with high fat feed for 12 weeks. […]
In addition, abdominal fat and liver specimens were taken from the abdomens of sacrificed mice and weighted to compare the weight of fat and liver and obtain a ratio of liver weight to body weight. […] Furthermore, the liver function of animals of each group were analyzed by Galactose Single Point Method, which was recognized and recommended for quantification of remaining liver function in clinical use by U.S. FDA and Ministry of Health and Welfare, Taiwan. […]

Row | SMILES | effect on liver antioxidant activity (in words) [1] | large vesicular fat droplets within liver cells in liver tissue section [2] | effect on liver damages (NAS, in words) [2] | inhibition at 1 µM [3] [%] | effect on ALT and AST values (in words) [4] | effect on TC in liver (in words) [5] | effect on TG in liver (in words) [5] | Gpx, GSH, Grd, and SOD levels (in words) ([1]; 4-week treatment) | effect on weight of abdominal fat (in words) [6]
1 | O=C1C[C@@H](c2ccc(O)c(O)c2)Oc2cc(O)cc(O)c21 [eriodictyol] | can significantly enhance antioxidant activity | significantly reduced | can significantly reduce liver damages | 35.1 ± 0.87 | can significantly reduce ALT and AST values | reduces TC in liver significantly | reduces TG in liver significantly |  | 
2 | COc1ccc([C@@H]2CC(=O)c3c(O)cc(O)cc3O2)cc1O [hesperitin] | can significantly enhance antioxidant activity |  |  | 16.1 ± 5.55 | can significantly reduce ALT and AST values | reduces TC in liver significantly | reduces TG in liver significantly |  | 
3 | OC[C@@H](O)[C@@H](O)[C@H](O)[C@H](O)CO [mannitol] | can significantly enhance antioxidant activity | significantly reduced | can significantly reduce liver damages | 22.4 ± 5.74 | can significantly reduce ALT and AST values | reduces TC in liver significantly | reduces TG in liver significantly | substantial increases | reduces the weight of abdominal fat in animals significantly
4 | CC1CCC(C(C)C)C(O)C1 (stereo not drawn) [menthol] |  | significantly reduced |  | 66.2 ± 1.87 | can significantly reduce ALT and AST values | reduces TC in liver significantly | reduces TG in liver significantly |  | reduces the weight of abdominal fat in animals significantly
5 | O=c1c(-c2ccc(O)cc2)coc2c([C@@H]3O[C@H](CO)[C@@H](O)[C@H](O)[C@H]3O)c(O)ccc12 [puerarin] | can significantly enhance antioxidant activity |  |  | 49.9 ± 7.73 | can significantly reduce ALT and AST values |  | reduces TG in liver significantly |  | 
6 | OC[C@H]1O[C@H](O[C@]2(CCl)O[C@H](CCl)[C@@H](O)[C@@H]2O)[C@H](O)[C@@H](O)[C@H]1Cl [sucralose] |  |  |  | 26.7 ± 2.93 | can significantly reduce ALT and AST values | reduces TC in liver significantly | reduces TG in liver significantly |  | reduces the weight of abdominal fat in animals significantly
